# Experimental data from patent publication US8597875B2, “Method for diagnosing liver toxicity with sex specific biomarkers” (BASF SE, priority 2008, dated 2013).
# How the values were obtained:
# female rats = assay: Plasma metabolite profiling (GC-MS/LC-MS) for liver toxicity markers, 28-day gavage study, female rats; assay type: in vivo, rat; settings: for Glycerol-3-Phosphate, polar fraction, change of plasma metabolite / Glucose, change of plasma metabolite / Cholesterol, change of plasma metabolite: female rats
# Procedure: (§1) A group of each 5 male and female rats was dosed once daily with the indicated compounds (see tables below) at 10 and 100 mg/kg body weight per gavage over 28 days. Additional groups of each 5 male and female animals served as controls. Before starting the treatment period, animals, which were 62-64 days old when supplied, were acclimatized to the housing and environmental conditions for 7 days. All animals of the animal population were kept under the same constant temperature (20-24±3° C.) and the same constant humidity (30-70%). Each animal of the animal population was kept in a separate cage. The animals of the animal population are fed ad libitum. The food to be used was be essentially free of chemical or microbial contaminants. Drinking water was also offered ad libitum. Accordingly, the water was be free of chemical and microbial contaminants as laid down in the European Drinking Water Directive 98/83/EG. The illumination period was 12 hours light followed by 12 hours darkness (12 hours light, from 6:00 to 18:00, and 12 hours darkness, from 18:00 to 6:00).
# (§2) In the morning of day 7, 14, and 28, blood was taken from the retroorbital venous plexus from fasted anaesthetized animals. From each animal, 1 ml of blood was collected with EDTA as anticoagulant. The samples were be centrifuged for generation of plasma. All plasma samples were covered with a N2 atmosphere and then stored at −80° C. until analysis.
# (§3) For mass spectrometry-based metabolite profiling analyses plasma samples were extracted and a polar and a non-polar fraction was obtained. For GC-MS analysis, the non-polar fraction was treated with methanol under acidic conditions to yield the fatty acid methyl esters. Both fractions were further derivatised with O-methyl-hydroxyamine hydrochloride and pyridine to convert Oxo-groups to O-methyloximes and subsequently with a silylating agent before analysis. In LC-MS analysis, both fractions were reconstituted in appropriate solvent mixtures. HPLC was performed by gradient elution on reversed phase separation columns. For mass spectrometric detection metanomics proprietary technology was applied which allows target and high sensitivity MRM (Multiple Reaction Monitoring) profiling in parallel to a full screen analysis.
# (§4) Following comprehensive analytical validation steps, the data for each analyte were normalized against data from pool samples. These samples were run in parallel through the whole process to account for process variability. The significance of treatment group values specific for sex, dose group and metabolite was determined by comparing means of the treated groups to the means of the respective untreated control groups using WELCH-test. Normalized treatment group values and their significance were fed into a database for further statistics and data mining processes.
# (§5) The changes of the group of plasma metabolites being indicative for liver toxicity after treatment of the rats are shown in the following tables: […]
# male rats = assay: Plasma metabolite profiling (GC-MS/LC-MS) for liver toxicity markers, 28-day gavage study, male rats; assay type: in vivo, rat; settings: Table 3, male rats
# Procedure: as §1, §2, §3, §4, §5
# [1] = Table 4, female rats, fh7 (day 7)
# [2] = Table 4, female rats, fh14 (day 14)
# [3] = Table 4, female rats, fh28 (day 28)
smiles,measurement,setting,value
CC(=O)Nc1ccc(O)cc1 [N-Acetyl-p-Aminophenol],"Behenic acid (C22:0), change of plasma metabolite",female rats; [1],1.11
same,"Coenzyme Q9, change of plasma metabolite",female rats; [1],2.21
same,"Eicosatrienoic acid No 01, change of plasma metabolite",female rats; [1],1.15
same,"Glycerol, lipid fraction, change of plasma metabolite",female rats; [1],1.54
same,"Glycerolphosphate, lipid fraction, change of plasma metabolite",female rats; [1],1.13
same,"Heptadecanoic acid (C17:0), change of plasma metabolite",female rats; [1],1.31
same,"Linoleic acid (C18:cis[9,12]2), change of plasma metabolite",female rats; [1],1.43
same,"Nervonic acid (C24:1), change of plasma metabolite",female rats; [1],1.19
same,"Palmitic acid (C16:0), change of plasma metabolite",female rats; [1],1.16
same,"Phosphatidylcholine No 01, change of plasma metabolite",female rats; [1],1.30
same,"Sphingolipids (5-Methoxysphingosine), change of plasma metabolite",female rats; [1],1.31
same,"Sphingolipids (erythro-Sphingosine), change of plasma metabolite",female rats; [1],1.11
same,"14-Methylhexadecanoic acid, change of plasma metabolite",female rats; [2],1.20
same,"Behenic acid (C22:0), change of plasma metabolite",female rats; [2],1.39
same,"Coenzyme Q9, change of plasma metabolite",female rats; [2],1.39
same,"DAG (C18:1, C18:2), change of plasma metabolite",female rats; [2],1.63
same,"Eicosatrienoic acid No 01, change of plasma metabolite",female rats; [2],1.91
same,"Glycerol, lipid fraction, change of plasma metabolite",female rats; [2],1.56
same,"Heptadecanoic acid (C17:0), change of plasma metabolite",female rats; [2],1.34
same,"Linoleic acid (C18:cis[9,12]2), change of plasma metabolite",female rats; [2],1.82
same,"Nervonic acid (C24:1), change of plasma metabolite",female rats; [2],1.35
same,"Palmitic acid (C16:0), change of plasma metabolite",female rats; [2],1.50
same,"Phosphatidylcholine No 01, change of plasma metabolite",female rats; [2],1.34
same,"Sphingolipids (5-Methoxysphingosine), change of plasma metabolite",female rats; [2],1.41
same,"Sphingolipids (erythro-Sphingosine), change of plasma metabolite",female rats; [2],1.29
same,"TAG No 01, change of plasma metabolite",female rats; [2],2.93
same,"14-Methylhexadecanoic acid, change of plasma metabolite",female rats; [3],1.68
same,"Coenzyme Q9, change of plasma metabolite",female rats; [3],1.19
same,"DAG (C18:1, C18:2), change of plasma metabolite",female rats; [3],1.86
same,"Eicosanoic acid (C20:0), change of plasma metabolite",female rats; [3],1.73
same,"Eicosatrienoic acid No 01, change of plasma metabolite",female rats; [3],2.08
same,"Glycerol, lipid fraction, change of plasma metabolite",female rats; [3],2.04
same,"Glycerolphosphate, lipid fraction, change of plasma metabolite",female rats; [3],1.82
same,"Heptadecanoic acid (C17:0), change of plasma metabolite",female rats; [3],1.64
same,"Linoleic acid (C18:cis[9,12]2), change of plasma metabolite",female rats; [3],2.68
same,"Palmitic acid (C16:0), change of plasma metabolite",female rats; [3],2.03
same,"TAG No 01, change of plasma metabolite",female rats; [3],3.85
same,"Glycerol-3-Phosphate, polar fraction, change of plasma metabolite","female rats; Table 4, first listing (r8), fh7 (day 7)",1.68
same,"Glycerol-3-Phosphate, polar fraction, change of plasma metabolite","female rats; Table 4, first listing (r8), fh14 (day 14)",1.18
same,"Glucose, change of plasma metabolite","female rats; Table 4, first listing (r10), fh7 (day 7)",1.25
same,"Glucose, change of plasma metabolite","female rats; Table 4, first listing (r10), fh28 (day 28)",1.17
same,"Cholesterol, change of plasma metabolite","female rats; Table 4, first listing (r14), fh28 (day 28)",1.41
same,"Cholesterol, change of plasma metabolite","female rats; Table 4, second listing (r26), fh7 (day 7)",1.21
same,"Cholesterol, change of plasma metabolite","female rats; Table 4, second listing (r26), fh14 (day 14)",1.42
same,"Cholesterol, change of plasma metabolite","female rats; Table 4, second listing (r26), fh28 (day 28)",1.74
same,"Glucose, change of plasma metabolite","female rats; Table 4, second listing (r27), fh28 (day 28)",1.04
same,"Glycerol-3-Phosphate, polar fraction, change of plasma metabolite","female rats; Table 4, second listing (r28), fh7 (day 7)",1.93
same,"Glycerol-3-Phosphate, polar fraction, change of plasma metabolite","female rats; Table 4, second listing (r28), fh14 (day 14)",1.35
same,"Glycerol-3-Phosphate, polar fraction, change of plasma metabolite","female rats; Table 4, second listing (r28), fh28 (day 28)",1.20
same,"4-Hydroxyphenylpyruvic acid, change of plasma metabolite",male rats; mh7 (day 7),3.04
same,"18:1 Lyso PC, change of plasma metabolite",male rats; mh7 (day 7),1.02
same,"Glycerol-3-Phosphate, polar fraction, change of plasma metabolite",male rats; mh7 (day 7),1.41
same,"alpha-Tocopherol, change of plasma metabolite",male rats; mh7 (day 7),1.21
same,"4-Hydroxyphenylpyruvic acid, change of plasma metabolite",male rats; mh14 (day 14),4.89
same,"4-Hydroxysphinganine, change of plasma metabolite",male rats; mh14 (day 14),1.61
same,"18:1 Lyso PC, change of plasma metabolite",male rats; mh14 (day 14),1.16
same,"Glycerol-3-Phosphate, polar fraction, change of plasma metabolite",male rats; mh14 (day 14),1.54
same,"Phosphatidylcholine No 01, change of plasma metabolite",male rats; mh14 (day 14),1.21
